For one data set, the target named is ErbB2 WT (Homo sapiens (Human), UniProt P04626). The data set can be described thus: ErbB Enzyme Assay (HTRF KinEASE-TK), Assay 2. It counts as biochemical.
The target of another data set is MDR1 (P-gp) (Homo sapiens (Human), UniProt P08183). In words: in vitro. The note with it: pig, LLC-PK1.
Another data set has as its target EGFR wild type (EGFR WT) (Homo sapiens (Human), UniProt P00533). The data set can be described thus: Cellular Phosphorylation Assay, Assay 5 (EGF-stimulated EGFR phosphorylation, NIH 3T3 cells). The class given is cell-based.
A further data set deals with EGFR (Homo sapiens (Human), UniProt P00533). The data set can be described thus: ErbB Enzyme Assay (HTRF KinEASE-TK), Assay 3. The class given is biochemical.
Data set [1] has as its target ErbB2 with Exon 20 YVMA insertion (HER2-YVMA) (Homo sapiens (Human), UniProt P04626, INS775YVMA). In words: Cellular Phosphorylation Assay, Assay 4 (constitutive ErbB2 phosphorylation, NIH 3T3 cells). The class given is cell-based.
For a further data set, the target named is BCRP (Homo sapiens (Human), UniProt Q9UNQ0). In words: BCRP MDCKII efflux assay (Assay 7). It counts as in vitro ADME. The note with it: dog; efflux ratio Papp(B-A)/Papp(A-B), BCRP MDCKII cells; read-out: Assay 7 Pe Ratio. As for the experimental part:
Assay conditions included with and without the BCRP-specific inhibitor, KO143, at a concentration of 0.3 μM to ascertain the contribution of BCRP to the efflux value of the test compound.
Final organic concentration in the assay was 1%.

The mark [2] stands for this setting: EGF-stimulated EGFR WT phosphorylation.
Where [3] appears, read: cellular EGFR WT phosphorylation, EGF-stimulated.
[4] abbreviates: cellular ErbB2 YVMA phosphorylation.

Sequence of ErbB2 WT (P04626 23-1255): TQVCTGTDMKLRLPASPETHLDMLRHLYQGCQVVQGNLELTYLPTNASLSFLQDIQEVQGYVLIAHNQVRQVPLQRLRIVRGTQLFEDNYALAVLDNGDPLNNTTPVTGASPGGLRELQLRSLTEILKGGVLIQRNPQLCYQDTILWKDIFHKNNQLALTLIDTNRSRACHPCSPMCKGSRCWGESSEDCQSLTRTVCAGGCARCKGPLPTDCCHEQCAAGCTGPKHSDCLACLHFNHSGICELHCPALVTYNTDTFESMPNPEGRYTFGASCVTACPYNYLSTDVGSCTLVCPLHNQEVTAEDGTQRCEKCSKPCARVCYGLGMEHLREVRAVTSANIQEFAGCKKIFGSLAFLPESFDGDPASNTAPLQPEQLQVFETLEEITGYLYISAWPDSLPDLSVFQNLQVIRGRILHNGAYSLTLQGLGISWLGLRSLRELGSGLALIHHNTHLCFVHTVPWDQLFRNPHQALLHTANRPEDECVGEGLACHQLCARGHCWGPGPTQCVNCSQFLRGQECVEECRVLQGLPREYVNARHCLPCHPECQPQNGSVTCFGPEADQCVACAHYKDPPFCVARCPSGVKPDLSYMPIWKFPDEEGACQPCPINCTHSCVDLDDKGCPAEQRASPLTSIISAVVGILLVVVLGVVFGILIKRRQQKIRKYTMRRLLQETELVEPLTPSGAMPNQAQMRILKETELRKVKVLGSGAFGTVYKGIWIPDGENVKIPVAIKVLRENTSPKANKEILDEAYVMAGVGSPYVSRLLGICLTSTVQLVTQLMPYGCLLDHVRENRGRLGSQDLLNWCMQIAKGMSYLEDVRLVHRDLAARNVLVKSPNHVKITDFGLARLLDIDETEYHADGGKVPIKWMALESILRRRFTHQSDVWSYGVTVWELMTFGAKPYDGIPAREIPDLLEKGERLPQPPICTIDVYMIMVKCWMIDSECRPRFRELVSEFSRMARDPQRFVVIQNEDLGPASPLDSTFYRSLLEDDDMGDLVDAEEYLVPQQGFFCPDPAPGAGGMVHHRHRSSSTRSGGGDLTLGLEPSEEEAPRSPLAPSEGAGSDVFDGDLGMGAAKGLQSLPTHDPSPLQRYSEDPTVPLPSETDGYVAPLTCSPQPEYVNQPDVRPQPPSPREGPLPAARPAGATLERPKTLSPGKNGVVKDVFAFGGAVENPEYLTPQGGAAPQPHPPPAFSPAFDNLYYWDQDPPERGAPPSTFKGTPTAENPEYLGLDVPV
Sequence of EGFR (P00533 25-1210): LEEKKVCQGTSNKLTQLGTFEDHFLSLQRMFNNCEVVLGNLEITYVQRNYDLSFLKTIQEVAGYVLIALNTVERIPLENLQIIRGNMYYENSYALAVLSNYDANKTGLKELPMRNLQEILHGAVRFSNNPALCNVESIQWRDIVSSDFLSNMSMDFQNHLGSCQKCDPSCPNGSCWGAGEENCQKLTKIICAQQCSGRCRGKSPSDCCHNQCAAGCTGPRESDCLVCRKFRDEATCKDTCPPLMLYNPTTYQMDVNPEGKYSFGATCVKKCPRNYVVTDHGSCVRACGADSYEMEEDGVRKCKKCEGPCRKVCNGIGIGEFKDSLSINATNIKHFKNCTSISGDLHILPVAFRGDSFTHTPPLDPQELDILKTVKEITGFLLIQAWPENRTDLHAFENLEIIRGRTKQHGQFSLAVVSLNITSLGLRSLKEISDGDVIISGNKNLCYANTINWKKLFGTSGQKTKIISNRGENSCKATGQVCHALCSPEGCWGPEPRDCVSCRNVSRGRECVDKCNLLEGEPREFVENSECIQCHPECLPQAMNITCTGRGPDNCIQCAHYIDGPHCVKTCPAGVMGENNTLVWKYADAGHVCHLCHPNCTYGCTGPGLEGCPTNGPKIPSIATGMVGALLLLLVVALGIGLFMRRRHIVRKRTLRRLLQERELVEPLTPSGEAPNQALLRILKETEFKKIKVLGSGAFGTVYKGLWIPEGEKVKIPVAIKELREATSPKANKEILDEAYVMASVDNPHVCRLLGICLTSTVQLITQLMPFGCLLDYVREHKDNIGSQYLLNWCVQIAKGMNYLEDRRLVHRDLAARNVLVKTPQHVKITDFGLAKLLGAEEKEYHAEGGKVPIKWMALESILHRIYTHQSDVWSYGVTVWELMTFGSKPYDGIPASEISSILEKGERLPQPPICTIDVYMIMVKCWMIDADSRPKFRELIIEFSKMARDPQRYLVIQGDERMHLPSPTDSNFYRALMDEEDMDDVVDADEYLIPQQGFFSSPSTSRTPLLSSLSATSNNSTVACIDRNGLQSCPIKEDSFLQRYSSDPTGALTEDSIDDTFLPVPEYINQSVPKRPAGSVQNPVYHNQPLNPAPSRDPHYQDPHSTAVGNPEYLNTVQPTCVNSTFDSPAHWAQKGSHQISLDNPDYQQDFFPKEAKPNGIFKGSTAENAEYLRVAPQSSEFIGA
Sequence of EGFR wild type (EGFR WT) (P00533 25-1210): as above
Sequence of ErbB2 with Exon 20 YVMA insertion (HER2-YVMA) (P04626 other isoform, or with tags, fused parts or gaps ins YVMA behind 775): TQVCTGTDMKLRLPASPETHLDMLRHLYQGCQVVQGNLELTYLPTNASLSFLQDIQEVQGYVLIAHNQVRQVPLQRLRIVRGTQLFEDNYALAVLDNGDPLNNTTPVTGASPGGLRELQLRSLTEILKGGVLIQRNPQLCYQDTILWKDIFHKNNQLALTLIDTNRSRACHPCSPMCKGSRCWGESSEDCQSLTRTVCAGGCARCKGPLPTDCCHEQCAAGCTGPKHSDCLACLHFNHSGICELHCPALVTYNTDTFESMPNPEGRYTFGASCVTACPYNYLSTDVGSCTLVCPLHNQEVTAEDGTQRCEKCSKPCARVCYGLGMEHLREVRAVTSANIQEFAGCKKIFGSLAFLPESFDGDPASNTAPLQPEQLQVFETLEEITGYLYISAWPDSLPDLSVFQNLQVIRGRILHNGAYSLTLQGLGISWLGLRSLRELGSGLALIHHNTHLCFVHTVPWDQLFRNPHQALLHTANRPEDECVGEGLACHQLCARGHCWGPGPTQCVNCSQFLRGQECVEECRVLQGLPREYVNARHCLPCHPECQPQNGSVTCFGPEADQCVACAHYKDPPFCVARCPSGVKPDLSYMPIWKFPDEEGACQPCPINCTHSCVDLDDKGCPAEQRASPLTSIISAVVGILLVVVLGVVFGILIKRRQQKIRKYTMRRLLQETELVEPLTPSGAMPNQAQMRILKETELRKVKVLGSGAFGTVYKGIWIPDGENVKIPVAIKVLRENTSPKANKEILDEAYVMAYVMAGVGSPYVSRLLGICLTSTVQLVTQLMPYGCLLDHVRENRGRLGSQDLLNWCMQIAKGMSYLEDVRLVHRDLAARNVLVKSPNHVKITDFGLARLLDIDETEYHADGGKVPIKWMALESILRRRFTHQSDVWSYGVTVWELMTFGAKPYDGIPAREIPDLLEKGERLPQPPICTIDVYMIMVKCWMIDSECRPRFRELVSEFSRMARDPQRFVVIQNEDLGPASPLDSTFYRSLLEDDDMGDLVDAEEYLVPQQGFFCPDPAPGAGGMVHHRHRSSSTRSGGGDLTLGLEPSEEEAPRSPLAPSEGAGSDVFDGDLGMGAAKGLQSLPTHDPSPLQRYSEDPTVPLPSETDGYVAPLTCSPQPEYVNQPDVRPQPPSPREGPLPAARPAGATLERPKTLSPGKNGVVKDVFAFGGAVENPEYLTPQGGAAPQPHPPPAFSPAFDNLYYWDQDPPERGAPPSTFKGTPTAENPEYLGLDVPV

Turning to `C=CC(=O)N1CCC(N(C)c2ccc3ncnc(Nc4ccc(Oc5ccn6ncnc6c5)c(C)c4F)c3n2)CC1` [Example 32, 1-(4-((4-((4-([1,2,4]triazolo[1,5-a]pyridin-7-yloxy)-2-fluoro-3-methylphenyl)amino)pyrido[3,2-d]pyrimidin-6-yl)(methyl)amino)piperidin-1-yl)prop-2-en-1-one], the IC50 on ErbB2 WT (ErbB2 WT enzyme) is 45.8 nM; at EGFR wild type (EGFR WT) (setting [2]) it was at least 5000 nM; on EGFR (EGFR enzyme), 5530 nM; in data set [1] (ErbB2 YVMA phosphorylation), 131 nM. Also, the efflux ratio at 2 h, 1 µM on MDR1 (P-gp) stood at 1.9.
In the same order, the values of `C=CC(=O)N1C[C@@H](c2ccc3ncnc(Nc4cc(C)c(Oc5ccc6c(c5)ncn6C)cc4F)c3n2)C[C@@H]1C` [Example 190, 1-((2S,4S)-4-(4-((2-fluoro-5-methyl-4-((1-methyl-1H-benzo[d]imidazol-5-yl)oxy)phenyl)amino)pyrido[3,2-d]pyrimidin-6-yl)-2-methylpyrrolidin-1-yl)prop-2-en-1-one] are 41.1 nM, at least 5000 nM, 3800 nM, 16 nM and 3.9.
In the same order, the values of `C=CC(=O)N1CCC(Oc2ccc3ncnc(Nc4ccc(Oc5ccn6ncnc6c5)c(C)c4F)c3n2)CC1` [Example 17, 1-(4-((4-((4-([1,2,4]triazolo[1,5-a]pyridin-7-yloxy)-2-fluoro-3-methylphenyl)amino)pyrido[3,2-d]pyrimidin-6-yl)oxy)piperidin-1-yl)prop-2-en-1-one] are 48.3 nM, 1220 nM, 2110 nM, 14 nM and 2.7.
On to `C=CC(=O)N1CC[C@H]2CN(c3ccc4ncnc(Nc5cc(C)c(Oc6ccn7ncnc7c6)cc5F)c4n3)C[C@H]21` [Example 26, 1-((3aS,6aS)-5-(4-((4-([1,2,4]triazolo[1,5-a]pyridin-7-yloxy)-2-fluoro-5-methylphenyl)amino)pyrido[3,2-d]pyrimidin-6-yl)hexahydropyrrolo[3,4-b]pyrrol-1(2H)-yl)prop-2-en-1-one], for which the concentration for half-maximal inhibition (IC50) is 121 nM at ErbB2 WT (ErbB2 WT enzyme), at least 5000 nM on EGFR wild type (EGFR WT) (setting [2]), at least 10000 nM at EGFR (EGFR enzyme) and 20.4 nM in data set [1] (ErbB2 YVMA phosphorylation). Besides, the efflux ratio at 2 h, 1 µM on BCRP was determined as 8.3.
As for `C=CC(=O)N1CCN(c2nc3c(Nc4ccc(Oc5ccn6ncnc6c5)c(C)c4F)ncnc3cc2OC)CC1` [Example 152, 1-(4-(4-((4-([1,2,4]triazolo[1,5-a]pyridin-7-yloxy)-2-fluoro-3-methylphenyl)amino)-7-methoxypyrido[3,2-d]pyrimidin-6-yl)piperazin-1-yl)prop-2-en-1-one], the IC50 against ErbB2 WT (ErbB2 WT enzyme) was 37.3 nM; on EGFR wild type (EGFR WT) (setting [2]) it was 613 nM; on EGFR (EGFR enzyme), 1040 nM; in data set [1] (ErbB2 YVMA phosphorylation) it was 20.9 nM. Further, at BCRP, the efflux ratio at 2 h, 1 µM came to 17.5.
In the same order, the values of `C=CC(=O)N1C[C@H](c2ccc3ncnc(Nc4cc(C)c(Oc5ccc6c(c5)ncn6C)cc4F)c3n2)C[C@H]1C` [Example 192, 1-((2R,4R)-4-(4-((2-fluoro-5-methyl-4-((1-methyl-1H-benzo[d]imidazol-5-yl)oxy)phenyl)amino)pyrido[3,2-d]pyrimidin-6-yl)-2-methylpyrrolidin-1-yl)prop-2-en-1-one] are 132 nM, at least 5000 nM, at least 10000 nM, 22.1 nM and 2.1.
Consider `C=CC(=O)N1C[C@H]2C[C@@H]1[C@H](c1ccc3ncnc(Nc4cc(C)c(Oc5ccc6c(c5)ncn6C)cc4F)c3n1)C2` [Example 374], for which the concentration for half-maximal inhibition (IC50) at ErbB2 WT (ErbB2 WT enzyme assay) is 16.5 nM; against EGFR wild type (EGFR WT) (setting [3]), at least 5000 nM; at EGFR (EGFR enzyme assay), 2660 nM; in data set [1] (setting [4]) it was 20.5 nM. The efflux ratio at 2 h, 1 µM at BCRP came to 3.4.
Consider `C=CC(=O)N1C[C@H]2C[C@@H]1[C@H](c1ccc3ncnc(Nc4ccc(Oc5cnc6c(c5)ncn6C)c(C)c4)c3n1)C2` [Example 407], for which the IC50 at ErbB2 WT (ErbB2 WT enzyme assay) was 38 nM; on EGFR wild type (EGFR WT) (setting [3]), at least 5000 nM; at EGFR (EGFR enzyme assay), 1510 nM; in data set [1] (setting [4]), 20.4 nM. Besides, on BCRP, the efflux ratio at 2 h, 1 µM came out at 16.
The like results for `C=CC(=O)N1CCN(c2ccc3ncnc(Nc4cc(C)c(Oc5ccc6c(c5)ncn6C)cc4F)c3n2)CC12CC2` [Example 340] were, in that order, 19.5 nM, 2020 nM, 881 nM, 19.6 nM and 8.9.
With `C=CC(=O)N1CCN(c2ccc3ncnc(Nc4cc(Cl)c(Oc5cnc6c(c5)ncn6C)cc4F)c3n2)CC1(C)C` [Example 452], the IC50 at ErbB2 WT (ErbB2 WT enzyme assay) is 452 nM; on EGFR wild type (EGFR WT) (setting [3]), at least 5000 nM; against EGFR (EGFR enzyme assay), 1060 nM; in data set [1] (setting [4]), 12.8 nM. The efflux ratio at 2 h, 1 µM at BCRP was 6.2.
As to `C=CC(=O)N1C2CCC1CN(c1ccc3ncnc(Nc4cc(C)c(Oc5ccn6ncnc6c5)cc4F)c3n1)C2` [Example 443], the IC50 amounted to 90.6 nM against ErbB2 WT (ErbB2 WT enzyme assay), 2820 nM at EGFR wild type (EGFR WT) (setting [3]), 4150 nM on EGFR (EGFR enzyme assay) and 25.5 nM in data set [1] (setting [4]). In addition, the efflux ratio at 2 h, 1 µM on BCRP stood at 10.
Turning to `C=CC(=O)N1CCC(c2ccc3ncnc(Nc4ccc(Oc5ccc6c(c5)ncn6C)c(C)c4F)c3n2)CC1` [Example 146, 1-(4-(4-((2-fluoro-3-methyl-4-((1-methyl-1H-benzo[d]imidazol-5-yl)oxy)phenyl)amino)pyrido[3,2-d]pyrimidin-6-yl)piperidin-1-yl)prop-2-en-1-one], the 50% inhibitory concentration (IC50) on ErbB2 WT (ErbB2 WT enzyme) was 15.8 nM; on EGFR wild type (EGFR WT) (setting [2]), at least 5000 nM; at EGFR (EGFR enzyme), 2580 nM; in data set [1] (ErbB2 YVMA phosphorylation), 36.7 nM. Further, the efflux ratio at 2 h, 1 µM on BCRP worked out at 4.3.
The like results for `C=CC(=O)N1C[C@H](c2ccc3ncnc(Nc4cc(C)c(Oc5ccc6c(c5)ncn6C)cc4F)c3n2)CCC1(C)C` (racemic) [Example 141, rac-(R)-1-(5-(4-((2-fluoro-5-methyl-4-((1-methyl-1H-benzo[d]imidazol-5-yl)oxy)phenyl)amino)pyrido[3,2-d]pyrimidin-6-yl)-2,2-dimethylpiperidin-1-yl)prop-2-en-1-one] were, in that order, 180 nM, at least 5000 nM, at least 10000 nM, 17.6 nM and 2.4.
`C=CC(=O)N1CCC(Sc2ccc3ncnc(Nc4ccc(Oc5ccc6c(c5)ncn6C)c(C)c4)c3n2)CC1` [Example 59, 1-(4-((4-((3-methyl-4-((1-methyl-1H-benzo[d]imidazol-5-yl)oxy)phenyl)amino)pyrido[3,2-d]pyrimidin-6-yl)thio)piperidin-1-yl)prop-2-en-1-one]: the IC50 was 25.4 nM at ErbB2 WT (ErbB2 WT enzyme), at least 5000 nM against EGFR wild type (EGFR WT) (setting [2]), 534 nM on EGFR (EGFR enzyme) and 19 nM in data set [1] (ErbB2 YVMA phosphorylation). In addition, the efflux ratio at 2 h, 1 µM on BCRP is 10.8.
Take `C=CC(=O)N1CCC(c2ccc3ncnc(Nc4ccc(Oc5cnc6c(c5)ncn6C)c(Cl)c4)c3n2)CC1` [Example 271]: the concentration for half-maximal inhibition (IC50) is 51.9 nM at ErbB2 WT (ErbB2 WT enzyme assay), at least 5000 nM against EGFR wild type (EGFR WT) (setting [3]), 3450 nM at EGFR (EGFR enzyme assay) and 31.6 nM in data set [1] (setting [4]). Further, the efflux ratio at 2 h, 1 µM at BCRP is 37.
The like results for `C=CC(=O)N1C2CCC1CN(c1ccc3ncnc(Nc4cc(Cl)c(Oc5ccn6ncnc6c5)cc4F)c3n1)C2` [Example 434] were, in that order, 20.8 nM, 3490 nM, 1230 nM, 9.8 nM and 13.6.
With `C=CC(=O)N1CCCN(c2ccc3ncnc(Nc4ccc(Oc5cnc6c(c5)ncn6C)c(Cl)c4)c3n2)CC1` [Example 113, 1-(4-(4-((3-chloro-4-((3-methyl-3H-imidazo[4,5-b]pyridin-6-yl)oxy)phenyl)amino)pyrido[3,2-d]pyrimidin-6-yl)-1,4-diazepan-1-yl)prop-2-en-1-one], the concentration for half-maximal inhibition (IC50) against ErbB2 WT (ErbB2 WT enzyme) is 184 nM; on EGFR wild type (EGFR WT) (setting [2]), at least 5000 nM; on EGFR (EGFR enzyme), at least 10000 nM; in data set [1] (ErbB2 YVMA phosphorylation) it was 30.2 nM. Also, at BCRP, the efflux ratio at 2 h, 1 µM worked out at 37.5.
The like results for `C=CC(=O)N1CC(c2ccc3ncnc(Nc4cc(C)c(Oc5ccc6c(c5)ncn6C)cc4F)c3n2)CCC12CC2` (centres unmarked) [Example 196, 1-(6-(4-((2-fluoro-5-methyl-4-((1-methyl-1H-benzo[d]imidazol-5-yl)oxy)phenyl)amino)pyrido[3,2-d]pyrimidin-6-yl)-4-azaspiro[2.5]octan-4-yl)prop-2-en-1-one] were, in that order, 42.9 nM, 2010 nM, 1160 nM, 33.8 nM and 2.5.
Turning to `C=CC(=O)N1CC[C@H]2C[C@H](c3ccc4ncnc(Nc5ccc(Oc6ccn7ncnc7c6)c(C)c5)c4n3)C[C@H]21` [Example 383], the 50% inhibitory concentration (IC50) at ErbB2 WT (ErbB2 WT enzyme assay) came out at 12.5 nM; on EGFR wild type (EGFR WT) (setting [3]), 488 nM; against EGFR (EGFR enzyme assay), 979 nM; in data set [1] (setting [4]) it was 17.5 nM. Moreover, at BCRP, the efflux ratio at 2 h, 1 µM turned out to be 9.5.
